# Test results: publication PMC10353390, “Biological and Structural Analyses of New Potent Allosteric Inhibitors of HIV-1 Integrase” (Antimicrobial Agents and Chemotherapy, 2023)
# Columns and labels:
# [1] = test system: recombinant NL4-3 viruses with polymorphisms at IN positions 124 and 125; experiment: Multiple-round infection of MT4 cells with recombinant NL4-3 viruses polymorphic at IN positions 124 and 125; assay type: cell-based, HIV-1
# Text: Located on the HIV-1 IN CCD dimerization interface, the principal INLAI binding pocket overlaps with a hot spot of amino acid sequence polymorphism involving IN residues 124 and 125 ([16]). To test if the new INLAIs maintained antiviral activity against major polymorphisms, we introduced all major combinations of residues found in circulating HIV-1 strains at positions 124 and 125 into NL4-3 HIV-1 molecular clone. In total, we evaluated 15 such combinations that collectively covered 98% of all HIV-1 clade polymorphisms involving these positions ([48]). To gauge effects on the antiviral activity, we calculated the EC50 fold change (FC) relative to wild type NL4-3 HIV-1 strain that features Thr124 and Thr125 (TT; specific polymorphisms are referred to by a single letter amino acid code).
# (§1) MT4 cells growing exponentially at the density of 10^6/mL were infected with HIV-1 strain NL4-3 at a multiplicity of infection (MOI) of 0.001 for 2 h in the presence of different concentrations of compounds, and the CellTiter-Glo luminescent reagent (Promega) was used to quantify cell viability as described previously ([12]).
# [2] = test system: HIV-1 strains resistant to INSTIs, NRTIs, NNRTIs or PIs; assay type: cell-based
# Experimental: To this end, we used both recombinant viruses constructed by introducing described drug resistance mutations into NL4-3 HIV-1 clone as well as drug-resistant clinical HIV-1 isolates.
# as §1
# HIV-1 IN = target: T1, HIV-1 IN (Human immunodeficiency virus type 1 group M subtype B, UniProt P12497); experiment: HTRF IN multimerization assay; assay type: biochemical; conditions: mean ± SD
# T1 construct: made in house
# Text: A key property of INLAIs is the ability to promote HIV-1 IN homo-multimerization ([39][–][42]). […] The maximal signal (plateau) in our IN aggregation assay corresponds to the highest HTRF signal increase under saturating INLAI concentration, relative to baseline level. Thus, MUT916, MUT884, MUT871, and MUT872 increased HIV-1 IN aggregation 3.7 to 4.4-fold, while BDM-2, BI-224436, and S-I-82 did so 5 to 6-fold (Table 1).
# [3] = test system: VSV-G-pseudotyped NL4-3Δenv-luc; experiment: microbe, parasite or virus in culture; assay type: cell-based, HIV-1
# [4] = target: HIV-1 IN-LEDGF/p75 interaction (Human immunodeficiency virus type 1 group M subtype B, UniProt P12497); experiment: biochemical
# Experimental: (§2) The INLAIs were tested for the ability to inhibit the HIV-1 IN-LEDGF/p75 interaction in a homogeneous time-resolved fluorescence (HTRF) assay. Our assays used either full-length IN and LEDGF/p75 proteins or their respective minimally sufficient interaction domains: the CCD of HIV-1 IN and the IBD of LEDGF/p75 (Table 1).
# (§3) HTRF-based CCD-IBD interaction, IN-LEDGF/p75 interaction and IN multimerization assays were performed as described previously ([12]).
# [5] = test system: primary HIV-1 isolates with polymorphisms at IN positions 124 and 125; experiment: Multiple-round infection of MT4 cells with primary HIV-1 isolates polymorphic at IN positions 124 and 125; assay type: cell-based; conditions: primary isolate
# Experimental: Next, we evaluated the potency of the BDM-2 series of INLAIs against several primary HIV-1 isolates with polymorphisms at IN positions 124 and 125.
# as §1
# HXB2 HIV-1 strain = experiment: Multiple-round infection assay in MT4 cells, HXB2; assay type: cell-based; conditions: Human immunodeficiency virus 1, HXB2; multiple-round infection, MT4 cells; mean ± SD, n > 5; read-out: EC50 HXB2
# Experimental: Antiretroviral activity of BDM-2 and its analogs was first evaluated in lymphoblastoid cell line MT4 and in primary human T lymphocytes using NL4-3 and HXB2 laboratory HIV-1 isolates.
# as §1
# NL4-3 HIV-1 strain = experiment: Multiple-round infection assay in MT4 cells, NL4-3; assay type: cell-based; conditions: MT4 cells
# [6] = Cytotoxicity assay in MT4 cells; assay type: cell-based; conditions: human, MT4 cells (proliferating human T-cell line), CellTiter-Glo
# Text: Growth inhibition was monitored in a proliferating human T-cell line (MT4) with different concentrations of compounds, using the CellTiter-Glo luminescent reagent (Promega), as previously described ([12]).
# [7] = test system: NL4-3 HIV-1 with INLAI-selected IN single point mutations; assay type: cell-based
# [8] = target: CCD of HIV-1 IN and IBD of LEDGF/p75 (Human immunodeficiency virus type 1 group M subtype B, UniProt P12497); experiment: biochemical
# Experimental: as §2, §3
# [9] = INSTI-resistant, NL4-3 background
smiles,measurement,setting,value
Cc1ccc(C2CC2)c(-c2cc(F)c3c(c2C)CCCO3)c1[C@H](OC1CC1)C(=O)O [MUT916],"Fold change in EC50 relative to parental NL4-3, AA","[1]; recombinant NL4-3, IN 124/125 AA",1
same,"Fold change in EC50 relative to parental NL4-3, AM","[1]; recombinant NL4-3, IN 124/125 AM",0.2
same,"Fold change in EC50 relative to parental NL4-3, AT","[1]; recombinant NL4-3, IN 124/125 AT",0.5
same,"Fold change in EC50 relative to parental NL4-3, AV","[1]; recombinant NL4-3, IN 124/125 AV",0.4
same,"Fold change in EC50 relative to parental NL4-3, GA","[1]; recombinant NL4-3, IN 124/125 GA",1
same,"Fold change in EC50 relative to parental NL4-3, GT","[1]; recombinant NL4-3, IN 124/125 GT",1
same,"Fold change in EC50 relative to parental NL4-3, NA","[1]; recombinant NL4-3, IN 124/125 NA",4
same,"Fold change in EC50 relative to parental NL4-3, NT","[1]; recombinant NL4-3, IN 124/125 NT",1
same,"Fold change in EC50 relative to parental NL4-3, NV","[1]; recombinant NL4-3, IN 124/125 NV",0.4
same,"Fold change in EC50 relative to parental NL4-3, SA","[1]; recombinant NL4-3, IN 124/125 SA",1
same,"Fold change in EC50 relative to parental NL4-3, ST","[1]; recombinant NL4-3, IN 124/125 ST",1
same,"Fold change in EC50 relative to parental NL4-3, TA","[1]; recombinant NL4-3, IN 124/125 TA",1
same,"Fold change in EC50 relative to parental NL4-3, TM","[1]; recombinant NL4-3, IN 124/125 TM",0.2
same,"Fold change in EC50 relative to parental NL4-3, TV","[1]; recombinant NL4-3, IN 124/125 TV",0.4
same,"Fold change in EC50 relative to NL4-3, E92Q",[2]; [9],1
same,"Fold change in EC50 relative to NL4-3, G140S",[2]; [9],1
same,"Fold change in EC50 relative to NL4-3, G140S/Q148H",[2]; [9],1
same,"Fold change in EC50 relative to NL4-3, N155H",[2]; [9],1
same,"Fold change in EC50 relative to NL4-3, Q148H",[2]; [9],1
same,"Fold change in EC50 relative to NL4-3, Y143R",[2]; [9],0.4
same,"Fold change in EC50 relative to NL4-3, NLAY351717",[2]; NRTI-resistant clone,1
same,"Fold change in EC50 relative to NL4-3, NLAY351753",[2]; NRTI/NNRTI-resistant clone,2
same,"Fold change in EC50 relative to NL4-3, K103N/Y181C","[2]; NRTI/NNRTIs group, NL4-3 background",1
same,"Fold change in EC50 relative to NL4-3, ARP-4595",[2]; PI-resistant virus,2
same,"Fold change in EC50 relative to NL4-3, ARP-4596",[2]; PI-resistant virus,1
same,"Fold change in EC50 relative to NL4-3, ARP-11801",[2]; PI-resistant virus,2
same,"Fold change in EC50 relative to NL4-3, ARP-11803",[2]; PI-resistant virus,2
same,"Fold change in EC50 relative to NL4-3, ARP-11807",[2]; PI-resistant virus,2
same,"Fold change in EC50 relative to NL4-3, ARP-11808",[2]; PI-resistant virus,2
same,AC50,HIV-1 IN; concentration for 50% maximum activation of multimerization,0.022 ± 0.002 µM
same,IN multimerization Plateau,HIV-1 IN; maximum multimerization reached versus baseline,370 ± 60%
same,EC50 ratio (single/multiple-round infection),[3],105
same,EC50,"[3]; Human immunodeficiency virus 1, NL43, MT4, read-out: EC50 in single-round infection",2.1 ± 0.2 µM
same,IC50,[4],0.046 ± 0.016 µM
same,"Fold change in EC50 relative to parental NL4-3, CAM2BBY (CRF02)",[5]; IN 124/125 AA,1
same,"Fold change in EC50 relative to parental NL4-3, E0836M4 (D)",[5]; IN 124/125 AA,1
same,"Fold change in EC50 relative to parental NL4-3, KER2008 (A)",[5]; IN 124/125 AA,1
same,"Fold change in EC50 relative to parental NL4-3, NP1525 (CRF01)",[5]; IN 124/125 AA,1
same,"Fold change in EC50 relative to parental NL4-3, NP1695 (CRF02)",[5]; IN 124/125 AA,2
same,"Fold change in EC50 relative to parental NL4-3, TZA125 (C)",[5]; IN 124/125 AA,0.4
same,"Fold change in EC50 relative to parental NL4-3, KSM4030 (A)",[5]; IN 124/125 GA,1
same,"Fold change in EC50 relative to parental NL4-3, vGA (C)",[5]; IN 124/125 GA,5
same,"Fold change in EC50 relative to parental NL4-3, 99ET14 (C)",[5]; IN 124/125 NA,2
same,"Fold change in EC50 relative to parental NL4-3, NP1538 (B)",[5]; IN 124/125 NA,2
same,"Fold change in EC50 relative to parental NL4-3, vNA_1 (B)",[5]; IN 124/125 NA,4
same,"Fold change in EC50 relative to parental NL4-3, vNA_2 (CRF02)",[5]; IN 124/125 NA,10
same,"Fold change in EC50 relative to parental NL4-3, vNV (B)",[5]; IN 124/125 NV,1
same,"Fold change in EC50 relative to parental NL4-3, vSA_1 (B)",[5]; IN 124/125 SA,3
same,"Fold change in EC50 relative to parental NL4-3, vSA_2 (CRF02)",[5]; IN 124/125 SA,4
same,"Fold change in EC50 relative to parental NL4-3, vTA_1 (B)",[5]; IN 124/125 TA,2
same,"Fold change in EC50 relative to parental NL4-3, vTA_2 (CRF02)",[5]; IN 124/125 TA,2
same,EC50,HXB2 HIV-1 strain,0.0088 ± 0.0008 µM
same,EC90,"NL4-3 HIV-1 strain; Human immunodeficiency virus 1, NL43, multiple-round infection, from dose response curves, read-out: EC90 NL4-3",0.03 ± 0.015 µM
same,EC50,"NL4-3 HIV-1 strain; Human immunodeficiency virus 1, NL43, multiple-round infection, mean ± SD, n > 5, read-out: EC50 NL4-3",0.02 ± 0.009 µM
same,Selectivity index CC50/EC50 NL4-3,NL4-3 HIV-1 strain,"3,900"
same,CC50,[6],78 ± 6 µM
same,"EC50 fold change compared to wild type NL4-3, A128T",[7],4
same,"EC50 fold change compared to wild type NL4-3, H171Q",[7],1
same,"EC50 fold change compared to wild type NL4-3, N222K",[7],3
same,"EC50 fold change compared to wild type NL4-3, T174I",[7],14
same,"EC50 fold change compared to wild type NL4-3, Y99H",[7],3
same,IC50,[8],0.019 ± 0.008 µM
